Broadly, the microsomal CLint is a measure of how fast metabolising enzymes remove a compound, apart from limits set by blood flow. High values mean rapid turnover, low ones slow turnover. As a reminder, the IC50 is the point on the concentration scale where inhibition reaches its midpoint. Usually inhibition stands for the change of the read-out against control, counted positive when it falls. What is called fraction unbound is free concentration divided by total concentration. The term AUC denotes the area under the concentration-time curve, a measure of exposure. Low values mean low exposure, high ones high exposure. As a reminder, the Papp A→B is the apparent permeability from the apical to the basolateral side of a cell layer.

The text below walks through data of ChEMBL document CHEMBL4024791, “Identification of Morpholino-2H-pyrido[3,2-b][1,4]oxazin-3(4H)-ones as Nonsteroidal Mineralocorticoid Antagonists” (J Med Chem, 2018).

A short description of data set [1]: Intrinsic clearance in rat liver microsomes. Background: Liver microsomes are a subcellular fraction often used to study metabolism.
Data set [2] deals with T1, Glucocorticoid receptor (Homo sapiens, UniProt P04150).
T1 sequence (P04150 whole entry): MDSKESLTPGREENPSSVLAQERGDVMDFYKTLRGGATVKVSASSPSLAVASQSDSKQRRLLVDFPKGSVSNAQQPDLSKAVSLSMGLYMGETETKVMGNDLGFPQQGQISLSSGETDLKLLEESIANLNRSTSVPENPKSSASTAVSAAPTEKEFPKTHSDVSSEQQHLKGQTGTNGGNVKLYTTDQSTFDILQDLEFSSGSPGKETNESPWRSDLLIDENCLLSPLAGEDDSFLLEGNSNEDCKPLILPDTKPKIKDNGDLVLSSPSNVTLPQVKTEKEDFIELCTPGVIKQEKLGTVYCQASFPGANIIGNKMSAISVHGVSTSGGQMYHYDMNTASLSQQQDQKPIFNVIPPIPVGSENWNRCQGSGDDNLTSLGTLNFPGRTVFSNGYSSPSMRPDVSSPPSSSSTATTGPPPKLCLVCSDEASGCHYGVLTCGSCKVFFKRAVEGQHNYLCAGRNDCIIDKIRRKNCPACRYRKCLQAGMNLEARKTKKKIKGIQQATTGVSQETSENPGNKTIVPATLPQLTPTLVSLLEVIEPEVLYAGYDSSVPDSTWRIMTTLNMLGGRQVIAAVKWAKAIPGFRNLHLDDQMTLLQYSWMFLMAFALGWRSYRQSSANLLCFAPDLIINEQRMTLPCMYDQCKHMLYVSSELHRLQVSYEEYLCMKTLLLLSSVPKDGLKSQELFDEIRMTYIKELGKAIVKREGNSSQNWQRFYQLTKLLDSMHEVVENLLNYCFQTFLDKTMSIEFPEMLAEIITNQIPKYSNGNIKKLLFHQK
The data set can be described thus: Antagonist activity at GR (unknown origin) by Gal4-based cellular assay.

The target in a further data set is hERG (KCNH2) (Homo sapiens, UniProt Q12809). The data set can be described thus: Displacement of [3H]-dofetilide from human ERG at 10 uM. Conditions: probe [3H]-dofetilide. (In general: Loss of bound radioactivity is the signal in a displacement assay; it reports binding, not function.)
Chain of hERG (KCNH2) (Q12809 whole entry): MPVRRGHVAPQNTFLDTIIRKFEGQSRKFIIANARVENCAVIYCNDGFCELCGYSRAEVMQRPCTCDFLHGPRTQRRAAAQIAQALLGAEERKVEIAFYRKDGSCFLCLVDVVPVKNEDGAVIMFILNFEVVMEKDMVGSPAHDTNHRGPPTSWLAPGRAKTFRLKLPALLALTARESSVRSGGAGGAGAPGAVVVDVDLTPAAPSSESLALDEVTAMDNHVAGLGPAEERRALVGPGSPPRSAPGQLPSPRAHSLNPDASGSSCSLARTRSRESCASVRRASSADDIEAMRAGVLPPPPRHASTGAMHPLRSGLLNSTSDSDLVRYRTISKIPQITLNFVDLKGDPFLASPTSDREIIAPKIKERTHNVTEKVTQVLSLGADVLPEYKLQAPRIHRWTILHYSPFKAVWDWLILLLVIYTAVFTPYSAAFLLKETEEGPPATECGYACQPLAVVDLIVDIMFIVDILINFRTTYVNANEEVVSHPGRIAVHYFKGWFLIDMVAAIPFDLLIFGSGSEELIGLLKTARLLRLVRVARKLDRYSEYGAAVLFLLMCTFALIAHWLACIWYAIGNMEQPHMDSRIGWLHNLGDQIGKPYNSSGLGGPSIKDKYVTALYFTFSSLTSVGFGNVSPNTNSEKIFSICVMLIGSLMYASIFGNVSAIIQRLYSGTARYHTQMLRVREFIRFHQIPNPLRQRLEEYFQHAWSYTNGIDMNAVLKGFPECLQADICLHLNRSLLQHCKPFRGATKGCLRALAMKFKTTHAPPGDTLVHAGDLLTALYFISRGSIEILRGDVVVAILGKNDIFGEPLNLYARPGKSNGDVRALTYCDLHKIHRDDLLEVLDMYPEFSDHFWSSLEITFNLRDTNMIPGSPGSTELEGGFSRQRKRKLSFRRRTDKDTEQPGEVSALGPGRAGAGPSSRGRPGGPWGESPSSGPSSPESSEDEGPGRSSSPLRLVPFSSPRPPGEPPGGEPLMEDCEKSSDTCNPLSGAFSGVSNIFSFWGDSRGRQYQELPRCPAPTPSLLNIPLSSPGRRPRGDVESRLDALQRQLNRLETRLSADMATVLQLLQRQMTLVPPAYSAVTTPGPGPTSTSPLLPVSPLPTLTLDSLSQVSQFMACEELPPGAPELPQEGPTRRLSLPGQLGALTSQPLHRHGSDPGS
Data set [3] can be described thus: Fraction unbound in dog plasma. The class given is ADME, cell-free, Canis lupus familiaris.
Data set [4] can be described thus: Volume of distribution at steady state in dog. Conditions: in vivo, read-out: Vdss. The format is ADME, Canis lupus familiaris.
Data set [5] is described as follows: AUC in Wistar rat at 100 mg/kg, po administered as single dose measured up to 8 hrs post dose by LC-MS analysis. The format is ADME, organism-based. Set-up: dose 100 mg/kg, time < 8 hr, route oral. Conditions: in vivo.
For data set [6], the target named is T1, Glucocorticoid receptor. The data set can be described thus: Displacement of [3H]-dexamethasone from recombinant human GST-tagged GR ligand binding domain after 4 hrs by liquid scintillation counting.
The target of data set [7] is T2, Mineralocorticoid receptor (Rattus norvegicus, UniProt P22199).
T2 sequence (P22199 whole entry): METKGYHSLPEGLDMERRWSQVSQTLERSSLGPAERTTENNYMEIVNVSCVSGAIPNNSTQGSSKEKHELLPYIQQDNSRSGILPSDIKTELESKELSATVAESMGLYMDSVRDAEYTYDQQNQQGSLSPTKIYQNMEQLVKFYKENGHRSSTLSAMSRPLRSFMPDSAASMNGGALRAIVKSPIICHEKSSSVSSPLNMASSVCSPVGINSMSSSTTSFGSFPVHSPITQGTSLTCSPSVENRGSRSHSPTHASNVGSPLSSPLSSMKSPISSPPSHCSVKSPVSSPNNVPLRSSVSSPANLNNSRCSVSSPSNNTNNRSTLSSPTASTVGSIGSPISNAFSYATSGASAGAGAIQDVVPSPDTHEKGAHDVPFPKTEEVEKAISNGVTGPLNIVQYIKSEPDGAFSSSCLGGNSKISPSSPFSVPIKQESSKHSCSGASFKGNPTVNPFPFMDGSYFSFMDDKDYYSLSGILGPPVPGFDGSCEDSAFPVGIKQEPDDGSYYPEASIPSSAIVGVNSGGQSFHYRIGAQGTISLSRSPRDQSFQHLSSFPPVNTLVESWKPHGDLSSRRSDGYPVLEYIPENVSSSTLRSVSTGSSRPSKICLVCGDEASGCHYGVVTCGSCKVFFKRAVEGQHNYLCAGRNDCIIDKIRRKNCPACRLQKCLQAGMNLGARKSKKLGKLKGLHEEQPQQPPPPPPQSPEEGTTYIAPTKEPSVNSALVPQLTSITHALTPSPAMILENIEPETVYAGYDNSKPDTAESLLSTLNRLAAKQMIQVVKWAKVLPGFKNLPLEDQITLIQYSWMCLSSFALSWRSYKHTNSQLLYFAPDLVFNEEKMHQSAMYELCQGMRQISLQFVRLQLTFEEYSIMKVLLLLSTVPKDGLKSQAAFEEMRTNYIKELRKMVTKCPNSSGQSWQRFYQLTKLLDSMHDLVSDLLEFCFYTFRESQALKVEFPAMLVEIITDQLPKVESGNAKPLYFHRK
The data set can be described thus: Antagonist activity at rat GAL4-DBD fused MR ligand binding domain transfected in human Huh7 cells co-expressing GAL4-RE-Luc assessed as reduction in aldosterone-induced luciferase activity after 16 hrs in serum free condition by luciferase reporter gene assay. The format is cell-based.

Data set [8] can be described thus: AUC in Wistar rat at 500 mg/kg, po administered as single dose measured up to 8 hrs post dose by LC-MS analysis. The class given is ADME, organism-based. More on the design: dose 500 mg/kg, time < 8 hr, route oral. The following applies: in vivo.
Another data set concerns MDR1 (P-gp). The data set can be described thus: Apparent permeability across apical to basolateral side in MDCK cells expressing human MDR1. The format is ADME, cell-based, Canis lupus familiaris. The following applies: dog.

`O=C1COc2ccc(N3CCOC[C@H]3c3ccccc3)cc2N1` displayed a microsomal CLint in data set [1] of 223 µL/min/mg. The molecule also gave an IC50 on Glucocorticoid receptor [2] greater than 10 µM. At 10 µM the inhibition on hERG (KCNH2) was 5%.

In [3], `C[C@@H]1CN(c2ccc3c(n2)NC(=O)CO3)[C@H](c2ccccc2)CO1` returned a fraction unbound of 0.136. The Vd in data set [4] was determined as 2.37 L/kg. The AUC at 8 h in data set [5] was 9410 ng·h/mL; in data set [8], 13500 ng·h/mL. Besides, the IC50 was greater than 10 µM at Glucocorticoid receptor [6], 0.0032 µM in data set [7] and greater than 10 µM at Glucocorticoid receptor [2]. Moreover, the Papp A→B in the data set with MDR1 (P-gp) came out at 24.9 ×10⁻⁶ cm/s.
